Assays:
[1] = test system: MDA-MB-231 human breast cancer; details: MDA-MB-231, 16 μM; cited from earlier work
[2] = test system: LNCaP, human androgen dependent prostate cancer cells; assay: LNCaP cell proliferation, [3H]thymidine incorporation assay; type: cell-based; details: LNCaP cells stimulated by 1 nM DHT, treated 3 days; for cell growth inhibition (thymidine incorporation), phytosterol alone: phytosterol alone 0-50 μM
Procedure: In these experiments, LNCaP cells were preincubated for 24 hours in 0.5% serum and then growth (quantified by measuring thymidine incorporation) was stimulated by 1 nM DHT. Stimulated cells were treated for 3 days with the indicated concentration of the phytosterols alone, or in combination with 0.4 μM lycopene. Data presented are the mean±SE of 2-3 independent experiments performed in quadruplicates.
Cell culture and cell proliferation assay: LNCaP, human androgen dependent prostate cancer cells, were purchased from American Type Culture Collection (Rockwell, Md.). Cells were grown in RPMI1640 containing 0.6 μg/ml insulin. All culture media were supplemented with L-glutamine (2 mM), penicillin (100 U/ml), streptomycin (0.1 mg/ml), nystatin (12.5 μg/ml), and 10% FCS. Cells were seeded in medium containing 3% FCS or 3% DCC phenol red free medium and 10 mM HEPES onto 96- and 6-multiwell plates (4-7×10^3 and 1.7×10^5 cells/well, respectively). One day later, the medium was changed to 0.5% FCS or 0% medium for an additional one day of incubation. Then the medium was changed to one containing the micronutrients (phytosterols, carotenoids, phospholipids, etc.) at the indicated concentrations and incubation was continued for 1-3 days. In order to assure that the agent was continuously present during prolonged incubation, the medium was replaced daily with one containing fresh carotenoids. Lycopene was dissolved in tetrahydrofuran at a concentration of 2 mM and stored at −20° C. Immediately before the experiment, the stock solution was added to the cell culture medium. The final concentration of lycopene in the medium was measured by spectrophotometry after extraction in 2-propanol and n-hexane:dichloromethane [3H]thymidine incorporation assay was performed in 96-multiwell plates. Cells were incubated with 1.25-2.50 uCi/well of [3H]thymidine (specific radioactivity 5 mCi/mmol in μCi/well) for one to four hours. The nucleotide incorporation was stopped by addition of unlabeled thymidine (0.5 μmol). The cells were then trypsinized and collected on a glass-fiber filter using a cell harvester (Inotech). Radioactivity was determined by a radioactive image analyzer (BAS 1000, Fuji).
All procedures were performed under dim light in order to prevent carotenoid degradation.
FIGS. 1A-1E. LNCaP cell were preincubated for 24 hours in 0.5% serum and then growth (thymidine incorporation) was stimulated by 1 nM DHT. Stimulated cells were treated for 3 days with the indicated concentrations of the phytosterols alone, or in combination with 0.4 μM Lycopene. Data presented are the mean±SE of 2-3 independent experiments performed in quadruplicates.

[3] = in animals; cited from earlier work
[4] = test system: phorbol esters (PMA)-stimulated macrophages (RAW 264.7 cells); details: cited from earlier work
[5] = test system: MCF-7 human breast cancer; details: MCF-7, 0.001 to 150 μM; cited from earlier work
HT-29 human colon cancer = details: HT-29, 16 μM; cited from earlier work
[6] = test system: LNCaP human prostate cancer; details: 16 μM; cited from earlier work
[7] = in vivo; cited from earlier work
[8] = RAW 264.7, effects 3-6 hours after preincubation

CC(C)[C@H](C)CC[C@@H](C)[C@H]1CC[C@H]2[C@@H]3CC=C4C[C@@H](O)CC[C@]4(C)[C@H]3CC[C@]12C [Campesterol]
growth [1]: unchanged | cell growth inhibition (thymidine incorporation), phytosterol alone [2]: did not have any effect on cell growth inhibition | intestinal absorption [3]: better absorbed than β-sitosterol

CC[C@H](CC[C@@H](C)[C@H]1CC[C@H]2[C@@H]3CC=C4C[C@@H](O)CC[C@]4(C)[C@H]3CC[C@]12C)C(C)C [β-sitosterol]
growth [1]: inhibition | H2O2 production induced by PMA [4, 8]: decrease | O2(−) production induced by PMA [4, 8]: decrease | NO release induced by PMA ([4]; RAW 264.7): reduced | inducible nitric oxide synthase (iNOS) levels ([4]; RAW 264.7): impairment | cell growth inhibition (thymidine incorporation), phytosterol alone [2]: inhibited prostate cancer cell proliferation in a dose dependent manner | growth [5]: increase | growth (HT-29 human colon cancer): inhibition | PSA levels [6]: reduced PSA | growth [6]: inhibition;

CC[C@H](/C=C/[C@@H](C)[C@H]1CC[C@H]2[C@@H]3CC=C4C[C@@H](O)CC[C@]4(C)[C@H]3CC[C@]12C)C(C)C [Stigmasterol]
cell growth inhibition (thymidine incorporation), phytosterol alone [2]: did not have any effect on cell growth inhibition | intestinal absorption [3]: only absorbed minimally

CC(C)CCC[C@@H](C)[C@H]1CC[C@H]2[C@@H]3CC=C4C[C@@H](O)CC[C@]4(C)[C@H]3CC[C@]12C [cholesterol, reference compound]
growth [1]: unchanged | absorption [7]: 35-70%

CC(C)=CCC/C(C)=C/C=C/C(C)=C/C=C/C(C)=C/C=C/C=C(C)/C=C/C=C(C)/C=C/C=C(\C)CCC=C(C)C [lycopene]
cell growth inhibition (thymidine incorporation), lycopene alone ([2]; 0.4 μM lycopene alone): did not inhibit proliferation

— US8460718B2, “Synergistic compositions and methods” (LycoRed Ltd., priority 2011, dated 2013)
